Assay results reported in patent publication EP1935986B1, “Luminogenic and fluorogenic compounds and methods to detect molecules or conditions” (priority 2005, dated 2006).
“And” between values parts separate entries of the source, which are not always exact repeats. Equal values may be shown once.

Tests used:
QuantiLum Luciferase [1] = target: T1, QuantiLum Luciferase (Photinus pyralis, UniProt P08659); experiment: Emission spectra of luciferase reactions with luciferin, 5'-fluoroluciferin, 7'-fluoroluciferin; type: biochemical, firefly; details: reagent pH 7.4
T1 construct: purchased Promega Corporation E170
Method: All compounds except fluoroluciferin and ATP were purchased from Sigma Chemical. ATP was purchased from Amersham/Invitrogen.
Spectra were measured using 0.5s integration with 1 nm increments on a Spex Fluorolog.

QuantiLum Luciferase [2] = target: T1, QuantiLum Luciferase; experiment: pH titration of firefly luciferase reaction with 7'-fluoroluciferin; type: biochemical
QuantiLum Luciferase [3] = target: T1, QuantiLum Luciferase; experiment: ATP titration of firefly luciferase reactions with luciferin and fluoroluciferins; type: biochemical; details: result in words
Method: All compounds except 5'-fluoroluciferin and DTT were purchased from Sigma Chemical. To some of this reagent 5 mM ATP (Amersham/Invitrogen) was added, then serially diluted by half-logs to 0.05 mM. Reactions were initiated by adding equal volumes (0.1 ml) of reagent and DMEM medium (Gibco/Invitrogen) containing 0.1% Prionex® (Pentapharm) and 1.4 x 10-5 mg/ml QuantiLum™ Luciferase (Promega Corporation).
For ATP titrations for 7'-fluoroluciferin, reagent was created containing 200 mM HEPES, 200 mM PIPES, 1 mM CDTA, 0.5% Tergitol NP-9, 0.03% Benzyl dodecyldimethyl ammonium bromide, 30 mM thiourea, 10 mM magnesium sulfate, and 0.15 mM 7'-fluoroluciferin. This solution was separated into 3 parts and pH of the reagents were 7.4, 7.2 and 6.7. To some of this reagent, 10 mM ATP (Amersham/Invitrogen) was added. The ATP was serially diluted by quarter-logs from 10 mM to 0.32 mM.
Reactions were initiated by adding equal volumes (0.03 ml) of reagent and DMEM medium (Gibco/Invitrogen) containing 0.1% Prionex® (Pentapharm) and 1.4 x 10-5 mg/ml QuantiLum™ Luciferase (Promega Corporation).
Luminescence was measured for 0.5 seconds per well using Berthold Orion luminometer.

luciferase = experiment: No-enzyme control: activity of luciferase towards the luciferin derivative (background luminescence); details: Table 32; microsomes from wild type baculovirus infected insect cells instead of FMO; CHES pH 9.5, 4 hours; duplicates
[4] = system: human recombinant flavin-containing monooxygenase 1 (FMO 1); experiment: Two-step luminescent FMO assay with luciferin derivative; type: biochemical; details: Table 32; CHES pH 9.5, NADPH regeneration, 4 hours room temperature; duplicates
[5] = system: human recombinant flavin-containing monooxygenase 3 (FMO 3); experiment: as above; type: biochemical; details: Table 32; CHES pH 9.5, NADPH regeneration, 4 hours room temperature; duplicates
CYP2D6 = target: T2, CYP2D6 (Homo sapiens, UniProt P10635); experiment: Screening inhibitors of CYP2D6 with luciferin-6-methylether ethylene glycol ester (IC50); type: biochemical; details: substrate luciferin-6-methylether ethylene glycol ester
T2 construct: purchased Discovery Labware (BD/Gentest); host or cells: insect cell expression system (membrane fractions)

[6] = target: T3, human recombinant monoamine oxidase B (MAO B) (Homo sapiens, UniProt P27338); details: published values; cited from earlier work
T3 construct: purchased Sigma Chemical Company M-7441; host or cells: baculovirus infected insect cells (microsomes)
T3 sequence (P27338 1-520): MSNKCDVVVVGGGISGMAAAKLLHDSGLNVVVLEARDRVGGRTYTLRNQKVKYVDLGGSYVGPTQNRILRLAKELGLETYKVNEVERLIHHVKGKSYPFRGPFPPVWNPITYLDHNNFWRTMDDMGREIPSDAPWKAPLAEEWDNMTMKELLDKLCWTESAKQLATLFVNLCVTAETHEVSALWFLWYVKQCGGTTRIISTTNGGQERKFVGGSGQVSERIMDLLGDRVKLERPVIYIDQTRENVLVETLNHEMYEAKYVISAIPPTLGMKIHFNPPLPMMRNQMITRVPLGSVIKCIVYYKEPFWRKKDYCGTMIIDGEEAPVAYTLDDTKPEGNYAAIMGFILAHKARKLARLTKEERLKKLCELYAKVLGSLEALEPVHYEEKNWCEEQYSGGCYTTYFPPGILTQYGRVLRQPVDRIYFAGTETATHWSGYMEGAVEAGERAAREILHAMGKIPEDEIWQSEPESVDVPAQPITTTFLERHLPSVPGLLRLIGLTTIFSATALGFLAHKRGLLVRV

[7] = target: T4, human recombinant monoamine oxidase A (MAO A) (Homo sapiens, UniProt P21397); parameters: purchased Sigma Chemical Company M-7316; host or cells: baculovirus infected insect cells (microsomes); details: read-out: published values MAO A; cited from earlier work
T4 sequence (P21397 1-527): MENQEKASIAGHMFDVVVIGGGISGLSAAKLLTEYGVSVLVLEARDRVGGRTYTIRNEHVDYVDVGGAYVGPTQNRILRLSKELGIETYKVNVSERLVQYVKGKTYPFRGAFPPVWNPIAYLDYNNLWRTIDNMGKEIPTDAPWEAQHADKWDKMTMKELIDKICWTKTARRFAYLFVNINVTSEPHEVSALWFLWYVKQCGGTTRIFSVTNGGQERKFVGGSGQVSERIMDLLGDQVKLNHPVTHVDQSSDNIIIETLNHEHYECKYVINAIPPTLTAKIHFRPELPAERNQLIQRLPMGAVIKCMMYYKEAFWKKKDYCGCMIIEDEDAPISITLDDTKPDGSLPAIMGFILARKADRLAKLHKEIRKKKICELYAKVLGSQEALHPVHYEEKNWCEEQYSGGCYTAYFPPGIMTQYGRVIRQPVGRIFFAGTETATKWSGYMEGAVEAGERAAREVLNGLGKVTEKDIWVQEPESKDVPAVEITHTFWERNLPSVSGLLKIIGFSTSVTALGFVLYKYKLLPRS

[8] = system: equine alcohol dehydrogenase; experiment: Effect of inhibitors on the conversion of luciferol by equine alcohol dehydrogenase; type: biochemical; details: luciferol + equine ADH + NAD+ with 10 µl inhibitor solution, 37°C, 30 minutes; duplicate reactions #1, #2 (controls 1023, 1087)
Method: Trichloroethanol solution: A 0.48 ml sample of 2,2,2, trichloroethanol (Aldrich T5480-5) was dissolved in water.
Duplicate reactions were assembled (see Table 19).
Reactions were initiated by addition of 1.5 µl of luciferol solution. Upon addition of the luciferol solution, the reactions were mixed and placed at 37°C.

T1 sequence (P08659 whole entry): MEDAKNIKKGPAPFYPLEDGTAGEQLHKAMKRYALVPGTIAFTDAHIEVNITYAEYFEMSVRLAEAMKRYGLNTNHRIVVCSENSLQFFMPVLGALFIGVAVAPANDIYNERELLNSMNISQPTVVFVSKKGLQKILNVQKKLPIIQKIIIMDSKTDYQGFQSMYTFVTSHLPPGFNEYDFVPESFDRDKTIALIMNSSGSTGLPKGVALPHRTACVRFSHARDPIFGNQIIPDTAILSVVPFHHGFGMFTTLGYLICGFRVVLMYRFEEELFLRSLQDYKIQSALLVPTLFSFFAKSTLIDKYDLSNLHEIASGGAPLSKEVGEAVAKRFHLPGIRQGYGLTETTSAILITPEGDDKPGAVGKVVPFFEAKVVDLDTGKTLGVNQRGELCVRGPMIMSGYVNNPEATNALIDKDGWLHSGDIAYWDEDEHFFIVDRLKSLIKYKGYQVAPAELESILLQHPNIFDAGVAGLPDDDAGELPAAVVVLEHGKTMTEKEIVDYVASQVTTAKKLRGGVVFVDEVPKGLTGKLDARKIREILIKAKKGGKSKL
T2 sequence (P10635 whole entry): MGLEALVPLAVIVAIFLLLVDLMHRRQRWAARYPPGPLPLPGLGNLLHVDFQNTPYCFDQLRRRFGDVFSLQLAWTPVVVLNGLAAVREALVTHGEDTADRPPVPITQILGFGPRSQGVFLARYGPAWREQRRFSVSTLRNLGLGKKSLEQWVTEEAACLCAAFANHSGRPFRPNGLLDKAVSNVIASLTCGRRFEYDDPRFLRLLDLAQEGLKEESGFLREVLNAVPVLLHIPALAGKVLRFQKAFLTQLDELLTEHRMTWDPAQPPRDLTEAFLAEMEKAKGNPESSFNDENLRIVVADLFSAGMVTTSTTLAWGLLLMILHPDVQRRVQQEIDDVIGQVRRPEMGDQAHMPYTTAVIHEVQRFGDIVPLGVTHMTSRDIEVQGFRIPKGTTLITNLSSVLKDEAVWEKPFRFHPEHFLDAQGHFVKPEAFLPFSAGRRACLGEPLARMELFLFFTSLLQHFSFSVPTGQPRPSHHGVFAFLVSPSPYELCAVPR

In the case of `O=C(O)[C@H]1CSC(c2nc3ccc(O)c(F)c3s2)=N1` [7'-fluoroluciferin], the “λmax of luminescence, red-shifted from regular luciferin” value (QuantiLum Luciferase [1]) is reported as “approximately 21 nm”, the “pH optima for the firefly luciferase reaction” value (QuantiLum Luciferase [2]) is reported as roughly 7.5 pH and the “ATP requirement of the luciferase reaction compared with luciferin” value (QuantiLum Luciferase [3]) is reported as “requirement for ATP is much higher”.

With `CCSCCOc1ccc2nc(C3=N[C@@H](C(=O)O)CS3)sc2c1` [FMO-2, 6-(2-ethylthioethoxy)-luciferin] the RLUs control (luciferase) was 8.7102 RLUs and 8.5489 RLUs, the “RLUs FMO 1” value [4] was 11.778 RLUs and 12.006 RLUs and the “RLUs FMO 3” value [5] was 12.194 RLUs and 10.425 RLUs.

In the case of `N=C(N)N1CCc2ccccc2C1` [debrisoquine], the IC50 (CYP2D6) is reported as 77 µM.

In the case of `NCCc1ccccc1` [phenethylamine], the IC50 [6] is given as 2 to 150 µM and the IC50 [7] is given as 78 to 280 µM.

With `OCC(Cl)(Cl)Cl` [trichloroethanol, 2,2,2, trichloroethanol] the “Relative Light Units” value [8] was 524.8 and 342.1.
